Reference: US20030032879A1, “Microbubble formation using ultrasound” (priority 1997, published 2003)
One block for each compound: values may come before it.

Tests used:
[1] = Acoustic backscatter (gray scale intensity) after injection into water beaker at 37° C.; conditions: 0.2 mL neat liquid (1111 micromoles) into 1000 mL water at 37° C.
Experimental: The criticality that the low boiling liquid be present as a finely divided dispersion rather than as a neat liquid was determined by measuring the acoustic backscatter of the two states.
Two solutions were prepared to simulate the administration to an organism of either a colloidal dispersion of a low boiling liquid or the liquid neat. These were scanned at 5.0 MHz with a Hewlett Packard Model 77020 ultrasound scanner and the images obtained recorded on Sony ES VHS tape. The analog images from the tape were then converted to a digital form using the software package Global Lab Image Software (Data Translation, Marlboro, Mass.). The gray scale intensity within a 4900 pixel (70×70 pixel-sized) region-of-interest was then measured before and after the injection of the colloidal dispersion of Example 19 and the same quantity of neat dodecafluoropentane into a 1000 mL water beaker equilibrated at 37° C.
The measurements were performed on a gray scale of 2 to 254. […] The injection of 0.1 mL of this emulsion produced a change of intensity to 236 five seconds post-injection and 182 fifty-two seconds post-injection.
The same experiment was performed with a 0.2 mL injection of neat dodecafluoropentane. This corresponds to 1111 micromoles of dodecafluoropentane, over 300-times the quantity in the experiment above. […]

[2] = Interfacial tension against dodecafluoropentane, Kruss Drop Volume Tensiometer; format: physicochemical; conditions: Pluronic P-123 / F-127 mixtures, 4° C.
dogs = conditions: cited from earlier work
[3] = Calculated change in dispersion size from liquid and gas densities; format: physicochemical; conditions: calculated from cubic root of volume
Experimental: One can also calculate the expected change in dispersion size if one knows the relative densities of the dispersed liquid as a gas and liquid. For example, the Gas Data Book, by W Braker and A Mossman, Matheson, contains such data. Examining octafluorocyclobutane, one finds that 1 L of the liquid yields 188 L of gas at a pressure of 760 mm Hg and 15° C. Since the volume of a sphere is related to the diameter of a sphere by the cubic root of the volume, the phase transition for an octafluorobutane emulsion particle will cause a 5.7-fold increase in diameter.

[4] = 760 mm Hg and 15° C., Gas Data Book; cited from earlier work

HLB from graphed interfacial tension data [2]: about 14
SMILES: FC(F)(F)C(F)(F)C(F)(F)C(F)(F)C(F)(F)F [dodecafluoropentane]
image intensity (gray scale of 2 to 254) ([1]; fifty-two seconds post-injection): 5.0
image intensity (gray scale of 2 to 254) ([1]; five seconds post-injection): 7.7

SMILES: CCOCC [ether]
toxicity (dogs; Injections of 20 mL): fatal
contrast effect on Doppler signal (dogs; intraarterial, detected five cm below injection site): greatest contrast effect

SMILES: FC1(F)C(F)(F)C(F)(F)C1(F)F [octafluorocyclobutane]
increase in diameter of emulsion particle on phase transition [3]: 5.7 fold
gas volume from 1 L of the liquid [4]: 188 L
